Reference: patent publication US6642392B1 (priority 1997, dated 2003)
Read-outs that look alike come from different tables or passages of the source.

What was measured:
Assay type in all cases: in vivo
Phytophthora infestans = conditions: for Test D disease control rating: tomato late blight; for Test D disease control rating (100 = 100% disease control, 0 = no disease control): tomato seedlings sprayed to run-off, inoculated the following day, rating relative to controls, unmarked compounds (standard test rate)
Pyricularia oryzae = conditions: for Test C disease control rating: rice blast; for Test C disease control rating (100 = 100% disease control, 0 = no disease control): rice seedlings sprayed to run-off, inoculated the following day, rating relative to controls, unmarked compounds (standard test rate)
[1] = tested on: Eiysiphe graminis f. sp. tritici; test: Test A: wheat powdery mildew, preventive spray on wheat seedlings; conditions: for Test A disease control rating: wheat powdery mildew; for Test A disease control rating (100 = 100% disease control, 0 = no disease control): wheat seedlings sprayed to run-off, inoculated the following day, rating relative to controls, unmarked compounds (standard test rate)
Method in brief: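 Preventive test: seedlings inoculated with powdery mildew spores one day after run-off spraying of a suspension. Ratings after 7 days in a 20° C growth chamber express percent disease control versus controls.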

Botrytis cinerea = test: Test E: gray mold, preventive spray on cucumber seedlings; conditions: for Test E disease control rating: gray mold on cucumber; for Test E disease control rating (100 = 100% disease control, 0 = no disease control): cucumber seedlings sprayed to run-off, inoculated the following day, rating relative to controls, unmarked compounds (standard test rate)
Method in brief: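 Preventive spray on cucumber seedlings used a suspension (3% acetone, 250 ppm Trem 014), applied to run-off one day before inoculation with Botrytis cinerea spores. Plants were held 48 h at 20° C in saturated air, then 5 days at 20° C. Percent disease control was scored relative to untreated plants.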

Puccinia recondita = test: Test B: wheat leaf rust, preventive spray on wheat seedlings; conditions: for Test B disease control rating: wheat leaf rust; for Test B disease control rating (100 = 100% disease control, 0 = no disease control): wheat seedlings sprayed to run-off, inoculated the following day, rating relative to controls, unmarked compounds (standard test rate)
Method in brief: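 Preventive test: P. recondita spores were applied one day after a run-off spray of compound suspension on wheat seedlings. Plants had 24 h at 20 °C in saturated air plus 6 days in a 20 °C growth chamber. Scoring is % disease control (100 = full) relative to controls.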

[2] = 100 = 100% disease control, 0 = no control, unmarked entries (standard test concentration)
[3] = 100 = 100% disease control, 0 = no control relative to controls, unmarked entries (standard test concentration)

Compound	Test D disease control rating (Phytophthora infestans; [2])	Test C disease control rating (Pyricularia oryzae; [2])	Test A disease control rating [1, 3]	Test E disease control rating (Botrytis cinerea; [2])	Test B disease control rating (Puccinia recondita; [2])	also measured
C[C@H](COc1cc(Cl)cc(Cl)c1)NC(=O)C(C#N)C(C)(C)C (single isomer, unassigned) [35b]	0%	91%	37%	0%	0%	–
CCCC(C#N)C(=O)NC(C)C(Oc1ccccc1C#N)c1ccccc1 (mixture of isomers) [compound 288]	–	–	–	–	–	Test D disease control rating (100 = 100% disease control, 0 = no disease control) (Phytophthora infestans): 0%; Test C disease control rating (100 = 100% disease control, 0 = no disease control) (Pyricularia oryzae): 86%; Test A disease control rating (100 = 100% disease control, 0 = no disease control) [1]: 33%; Test E disease control rating (100 = 100% disease control, 0 = no disease control) (Botrytis cinerea): 0%; Test B disease control rating (100 = 100% disease control, 0 = no disease control) (Puccinia recondita): 0%
CC(COc1c(F)ccc(F)c1F)NC(=O)C(C#N)C(C)(C)C (mixture of isomers) [compound 186]	0%	100%	0%	45%	0%	–
C=CCc1ccccc1OCC(C)NC(=O)C1(CC)C(C)C1(Cl)Cl (mixture of isomers) [101a]	46%	0%	0%	22%	0%	–
CC(C)(C)C(C#N)C(=O)NC/C=C/c1ccccc1Cl (racemic) [compound 179]	23%	74%	35%	58%	0%	–
C[C@H](COc1ccc(F)c(F)c1)NC(=O)C(C#N)C(C)(C)C (single isomer, unassigned) [30a]	0%	100%	0%	0%	0%	–
CC(COc1cccc(I)c1C#N)NC(=O)C(C#N)C(C)(C)C (mixture of isomers) [compound 45]	0%	86%	0%	0%	0%	–
C[C@H](COc1cc(F)ccc1F)NC(=O)C(C#N)C(C)(C)C (single isomer, unassigned) [28a]	68%	100%	38%	0%	28%	–
C[C@H](COc1cccc(I)c1)NC(=O)C(C#N)C(C)(C)C (single isomer, unassigned) [12a]	0%	91%	86%	0%	68%	–
C[C@H](COc1cccc(Br)c1)NC(=O)C(C#N)C(C)(C)C (single isomer, unassigned) [9c]	51%	100%	62%	0%	28%	–
CCC1(C(=O)NC(C)COn2c(C)cc(C)c2C#N)C(C)C1(Cl)Cl (mixture of isomers) [compound 136]	0%	78%	34%	0%	0%	–
C=CCC(C#N)C(=O)NC(C)C(Oc1ccccc1C#N)c1ccccc1 (mixture of isomers) [compound 285]	–	–	–	–	–	Test D disease control rating (100 = 100% disease control, 0 = no disease control) (Phytophthora infestans): 0%; Test C disease control rating (100 = 100% disease control, 0 = no disease control) (Pyricularia oryzae): 97%; Test A disease control rating (100 = 100% disease control, 0 = no disease control) [1]: 59%; Test E disease control rating (100 = 100% disease control, 0 = no disease control) (Botrytis cinerea): 0%; Test B disease control rating (100 = 100% disease control, 0 = no disease control) (Puccinia recondita): 0%
CCC(C)c1ccccc1OCC(C)NC(=O)C(C#N)C(C)(C)C (mixture of isomers) [compound 306]	–	–	–	–	–	Test D disease control rating (100 = 100% disease control, 0 = no disease control) (Phytophthora infestans): 0%; Test C disease control rating (100 = 100% disease control, 0 = no disease control) (Pyricularia oryzae): 99%; Test A disease control rating (100 = 100% disease control, 0 = no disease control) [1]: 0%; Test E disease control rating (100 = 100% disease control, 0 = no disease control) (Botrytis cinerea): 94%; Test B disease control rating (100 = 100% disease control, 0 = no disease control) (Puccinia recondita): 67%
CCC1(C(=O)NC(C)COc2ccc(Cl)cc2F)C(C)C1(Cl)Cl (centres unmarked) [compound 120]	–	–	–	–	–	Test D disease control rating (Phytophthora infestans; tested at 40 ppm): 19%; Test C disease control rating (Pyricularia oryzae; tested at 40 ppm): 52%; Test A disease control rating ([1]; tested at 40 ppm): 29%; Test E disease control rating (Botrytis cinerea; tested at 40 ppm): 0%; Test B disease control rating (Puccinia recondita; tested at 40 ppm): 0%
CC(C=Cc1ccccc1F)NC(=O)C(C#N)C(C)(C)C (mixture of isomers) [compound 308]	–	–	–	–	–	Test D disease control rating (100 = 100% disease control, 0 = no disease control) (Phytophthora infestans): 45%; Test C disease control rating (100 = 100% disease control, 0 = no disease control) (Pyricularia oryzae): 100%; Test A disease control rating (100 = 100% disease control, 0 = no disease control) [1]: 86%; Test E disease control rating (100 = 100% disease control, 0 = no disease control) (Botrytis cinerea): 0%; Test B disease control rating (100 = 100% disease control, 0 = no disease control) (Puccinia recondita): 28%
C[C@H](COc1cc(F)c(Cl)cc1F)NC(=O)C(C#N)C(C)(C)C (single isomer, unassigned) [173a]	33%	52%	63%	0%	28%	–
CCC1(C(=O)NC(C)COc2ccc(F)cc2C#N)C(C)C1(Cl)Cl (mixture of isomers) [compound 129]	0%	74%	38%	0%	26%	–
C[C@H](COc1ccc(F)cc1Cl)NC(=O)C(C#N)C(C)(C)C (single isomer, unassigned) [37b]	96%	99%	77%	0%	68%	–
C=C(F)C(C)(C)C(C#N)C(=O)NC(C)COc1cc(F)ccc1F (mixture of isomers) [compound 217]	–	–	–	–	–	Test D disease control rating (100 = 100% disease control, 0 = no disease control) (Phytophthora infestans): 0%; Test C disease control rating (100 = 100% disease control, 0 = no disease control) (Pyricularia oryzae): 99%; Test A disease control rating (100 = 100% disease control, 0 = no disease control) [1]: 0%; Test E disease control rating (100 = 100% disease control, 0 = no disease control) (Botrytis cinerea): 0%; Test B disease control rating (100 = 100% disease control, 0 = no disease control) (Puccinia recondita): 0%
CC(COc1ccccc1)NC(=O)C(C#N)C(C)C(C)(C)C (mixture of isomers) [compound 56]	–	–	–	–	–	Test D disease control rating (Phytophthora infestans; tested at 40 ppm): 0%; Test C disease control rating (Pyricularia oryzae; tested at 40 ppm): 85%; Test A disease control rating ([1]; tested at 40 ppm): 74%; Test E disease control rating (Botrytis cinerea; tested at 40 ppm): 0%; Test B disease control rating (Puccinia recondita; tested at 40 ppm): 0%
CCC1(C(=O)NC(C)CCn2cc(Cl)cc2C#N)C(C)C1(Cl)Cl (mixture of isomers) [compound 144]	0%	53%	0%	0%	28%	–
CCC1(C(=O)NC(C)COc2ccccc2Br)C(C)C1(Cl)Cl (mixture of isomers) [84a]	–	–	–	–	–	Test D disease control rating (Phytophthora infestans; tested at 40 ppm): 20%; Test C disease control rating (Pyricularia oryzae; tested at 40 ppm): 0%; Test A disease control rating ([1]; tested at 40 ppm): 29%; Test E disease control rating (Botrytis cinerea; tested at 40 ppm): 0%; Test B disease control rating (Puccinia recondita; tested at 40 ppm): 0%
